In paper PMC9151520 (Archives of Toxicology, 2022):
pEC50: −log10 of the molar value. Values joined by “and” are separate entries in the source; they are usually repeats but may differ in a detail not shown here. Equal values may be shown once. Read-outs that look alike come from different tables or passages of the source.

Key:
[1] = tested on: p53 signaling (p53RE-bla HCT-116 cells); experiment: cells; type: cell-based
[2] = tested on: p53 signaling (p53RE-bla HCT-116 cells)
[3] = tested on: p53 signaling (p53RE-bla HCT-116 cells); remark: listed apart in the source
[4] = read-out: p53 activation EC50, cherry pick confirmation
[5] = Homo sapiens, HCT-116, read-out: p53 activation EC50, cherry pick confirmation
[6] = Homo sapiens, HCT-116, read-out: p53 activation EC50, primary screening
[7] = Homo sapiens, HCT-116, read-out: p53 activation efficacy, cherry pick confirmation
[8] = Homo sapiens, HCT-116, read-out: p53 activation efficacy, primary screening
[9] = read-out: p53 activation EC50, primary screening
[10] = read-out: Viability EC50, cherry pick confirmation
[11] = read-out: Viability EC50, primary screening
[12] = read-out: EC50, p53 activation, cherry pick confirmation
[13] = read-out: EC50, p53 activation, primary screening

| Molecule | p53 activation efficacy, cherry pick confirmation [1] | p53 activation efficacy, primary screening [1] | pEC50 [1, 4] | p53 activation EC50, cherry pick confirmation [2] | p53 activation EC50, primary screening [2] | p53 activation efficacy, cherry pick confirmation [2] | p53 activation efficacy, primary screening [2] | p53 activation EC50, cherry pick confirmation [3] | p53 activation EC50, primary screening [3] | p53 activation efficacy, cherry pick confirmation [3] | p53 activation efficacy, primary screening [3] | Viability EC50, cherry pick confirmation (p53RE-bla HCT-116 cells) | Viability EC50, primary screening (p53RE-bla HCT-116 cells) | Viability efficacy, cherry pick confirmation (p53RE-bla HCT-116 cells) | Viability efficacy, primary screening (p53RE-bla HCT-116 cells) | pEC50 [1, 9] | EC50, p53 activation, cherry pick confirmation [2] | Efficacy, p53 activation, cherry pick confirmation [2] | EC50, p53 activation, cherry pick confirmation [3] | EC50, p53 activation, primary screening [3] | further results |
| --- | --- | --- | --- | --- | --- | --- | --- | --- | --- | --- | --- | --- | --- | --- | --- | --- | --- | --- | --- | --- | --- |
| Tannic acid | 97.9477 | 41.698 | 5.11 | inactive | inactive | inactive | inactive | inactive | inactive | inactive | inactive | inactive | inactive | inactive | inactive | – | – | – | – | – | – |
| COC(=O)Nc1nc2ccccc2[nH]1 [Carbendazim] | – | – | – | inactive | inactive | inactive | inactive | inactive | inactive | inactive | inactive | inactive | inactive | inactive | inactive | – | – | – | – | – | pEC50 [1, 5]: 4.92; pEC50 [1, 6]: 4.99; Emax [1, 7]: 62.2%; Emax [1, 8]: 67% |
| Tricyclodecanedimethanol diacrylate | 41.6463 | 37.7867 | 4.51 | inactive | inactive | inactive | inactive | inactive | inactive | inactive | inactive | inactive | inactive | – | – | 4.35 | – | – | – | – | pEC50 (p53RE-bla HCT-116 cells; [10]): 4.31; pEC50 (p53RE-bla HCT-116 cells; [11]): 4.31 |
| Potassium dichromate | – | 47.8443 | 4.83 | inactive | inactive | inactive | inactive | inactive | inactive | inactive | inactive | inactive | inactive | – | – | 5.08 | – | – | – | – | pEC50 (p53RE-bla HCT-116 cells; [10]): 4.46 and 4.69; pEC50 (p53RE-bla HCT-116 cells; [11]): 4.67 and 4.51 |
| O=C(N/N=C/c1ccc([N+](=O)[O-])o1)c1ccc(O)cc1 [Nifuroxazide] | – | – | – | inactive | inactive | inactive | inactive | inactive | inactive | inactive | inactive | inactive | inactive | inactive | inactive | – | – | – | – | – | pEC50 [1, 5]: 4.99; pEC50 [1, 6]: 4.71; Emax [1, 7]: 47.4%; Emax [1, 8]: 39.6% |
| Cc1cc(C2CCCCC2)n(O)c(=O)c1 [Ciclopirox olamine] | – | – | – | – | – | – | – | – | – | – | – | – | – | – | – | – | inactive | inactive | inactive | inactive | pEC50 ([1]; Homo sapiens, HCT-116, read-out: EC50, p53 activation, cherry pick confirmation): 4.58; pEC50 ([1]; Homo sapiens, HCT-116, read-out: EC50, p53 activation, primary screening): 4.79; Emax ([1]; Homo sapiens, HCT-116, read-out: Efficacy, p53 activation, cherry pick confirmation): 57.2%; Emax ([1]; Homo sapiens, HCT-116, read-out: Efficacy, p53 activation, primary screening): 26%; EC50, p53 activation, primary screening [2]: inactive; Efficacy, p53 activation, primary screening [2]: inactive; Efficacy, p53 activation, cherry pick confirmation [3]: inactive; Efficacy, p53 activation, primary screening [3]: inactive; EC50, viability, cherry pick confirmation (p53RE-bla HCT-116 cells): inactive; EC50, viability, primary screening (p53RE-bla HCT-116 cells): inactive; Efficacy, viability, cherry pick confirmation (p53RE-bla HCT-116 cells): inactive; Efficacy, viability, primary screening (p53RE-bla HCT-116 cells): inactive |
| Demeton | inactive | inactive | – | – | – | – | – | inactive | – | – | – | inactive | inactive | inactive | inactive | – | – | – | – | – | p53 activation EC50, cherry pick confirmation [1]: inactive; p53 activation EC50, primary screening [1]: inactive; pEC50 [2]: 5.72; pEC50 [2, 4]: 5.77 |
| CC(C)c1cccc(C(C)C)c1N1C(=O)c2ccc(O)cc2C1=O | 44.7367 | 87.6647 | 5.51 | inactive | inactive | inactive | inactive | inactive | inactive | inactive | inactive | inactive | inactive | inactive | inactive | 5.41 | – | – | – | – | – |
| c1cc(OCC2CO2)ccc1Cc1ccc(OCC2CO2)cc1 (stereo not drawn) [Bis[4-(glycidyloxy)phenyl]methane] | – | – | – | – | – | – | – | – | – | – | – | – | – | – | – | – | inactive | inactive | inactive | inactive | Efficacy, p53 activation, cherry pick confirmation [1]: 31.4403; Efficacy, p53 activation, primary screening [1]: 46.3017; pEC50 [1, 12]: 4.58; pEC50 [1, 13]: 4.32; EC50, p53 activation, primary screening [2]: inactive; Efficacy, p53 activation, primary screening [2]: inactive; Efficacy, p53 activation, cherry pick confirmation [3]: inactive; Efficacy, p53 activation, primary screening [3]: inactive; EC50, viability, cherry pick confirmation (p53RE-bla HCT-116 cells): inactive; EC50, viability, primary screening (p53RE-bla HCT-116 cells): inactive; Efficacy, viability, cherry pick confirmation (p53RE-bla HCT-116 cells): inactive; Efficacy, viability, primary screening (p53RE-bla HCT-116 cells): inactive |
| O=C(c1ccccc1)c1ccccc1 [Benzophenone] | inactive | inactive | – | inactive | – | inactive | – | inactive | – | inactive | – | inactive | inactive | inactive | inactive | – | – | – | – | – | p53 activation EC50, cherry pick confirmation [1]: inactive; p53 activation EC50, primary screening [1]: inactive |
| COC(=O)c1nc(Cl)c(Cl)nc1N | – | – | – | – | – | – | – | – | – | – | – | – | – | – | – | – | inactive | inactive | inactive | inactive | Efficacy, p53 activation, cherry pick confirmation [1]: 118.088; Efficacy, p53 activation, primary screening [1]: 51.0133; pEC50 [1, 12]: 4.62; pEC50 [1, 13]: 4.67; pEC50 [2, 13]: 4.65; Efficacy, p53 activation, cherry pick confirmation [3]: inactive; EC50, viability, cherry pick confirmation (p53RE-bla HCT-116 cells): inactive; EC50, viability, primary screening (p53RE-bla HCT-116 cells): inactive; Efficacy, viability, cherry pick confirmation (p53RE-bla HCT-116 cells): inactive; Efficacy, viability, primary screening (p53RE-bla HCT-116 cells): inactive |
| Oc1c(Cl)cc(Cl)cc1Sc1cc(Cl)cc(Cl)c1O [Sodium bithionolate] | – | – | – | – | – | – | – | – | – | – | – | – | – | – | – | – | inactive | inactive | inactive | inactive | EC50, p53 activation, cherry pick confirmation [1]: inactive; Efficacy, p53 activation, cherry pick confirmation [1]: inactive; Efficacy, p53 activation, primary screening [1]: 34.4493; pEC50 [1, 13]: 4.76; EC50, p53 activation, primary screening [2]: inactive; Efficacy, p53 activation, primary screening [2]: inactive; Efficacy, p53 activation, cherry pick confirmation [3]: inactive; Efficacy, p53 activation, primary screening [3]: inactive; EC50, viability, cherry pick confirmation (p53RE-bla HCT-116 cells): inactive; EC50, viability, primary screening (p53RE-bla HCT-116 cells): inactive; pEC50 (p53RE-bla HCT-116 cells; read-out: EC50, viability, cherry pick confirmation): 4.33 and 4.41; pEC50 (p53RE-bla HCT-116 cells; read-out: EC50, viability, primary screening): 4.36 and 4.34 |
| CCCCNC(=O)OCC#CI [3-Iodo-2-propynyl-N-butylcarbamate] | 104.439 | 78.699 | 4.46 | inactive | inactive | inactive | inactive | inactive | inactive | inactive | inactive | inactive | inactive | inactive | inactive | 4.32 | – | – | – | – | – |
